US8916206B2, “Nanoparticles containing water-soluble non-peptide low-molecular weight drug” (LTT Bio-Pharma Co., Ltd., priority 2005, dated 2014)

Key:
adjuvant arthritis rats [1] = assay: Suppression of adjuvant arthritis, Example 9 (left hind leg volume, water displacement); assay type: in vivo, Lewis rats; conditions: average of 7 rats
Description: (§1) Fifty microliters of an incomplete Freund's adjuvant solution (DIFCO) containing 6 mg/mL of M. Butyricum Dessicated (DIFCO) was subcutaneously injected into the left hind paw of 7-week-old Lewis rats, weighing 130 to 160 g, under anesthesia with ether. The animals were divided into groups so that there is no significant difference in the volume of the left hind leg between the groups. 14 days after administration of M. Butyricum, one group was intravenously administered a single dose of the nanoparticles of the present invention encapsulating betamethasone phosphate (equivalent to 50 μg betamethasone). As controls, other groups were intravenously administered the same amount of an aqueous betamethasone phosphate solution or the PLA nanoparticles encapsulating betamethasone phosphate (nanoparticles described in Example 2 of International Patent Publication No. WO 2004/84871), each administered in a single dose.
(§2) The ability of the nanoparticles to suppress arthritic inflammation was analyzed by the water displacement technique by measuring the volume of the left hind legs before and after the administration of the nanoparticles.
(§3) Inflammation rate shown in Table 6 was determined with respect to the leg volume of the control group (=100) and calculated by the following equation: Inflammation rate(%)=(measured leg volume−leg volume without adjuvant)/(initial leg volume−leg volume without adjuvant)×100
As in Example 5, the ability of nanoparticles to suppress adjuvant arthritis was evaluated. Each inflammation rate is the average of 7 rats. Nanoparticles of the present invention containing betamethasone phosphate equivalent to 40 μg betamethasone were intravenously administered in a single dose.
As a control, another group of rats was intravenously administered the same amount of an aqueous solution of betamethasone phosphate in a single dose.

adjuvant arthritis rats [2] = assay: Suppression of adjuvant arthritis, Example 5 (left hind leg volume, water displacement); assay type: in vivo, Lewis rats; conditions: average of 4 rats
Description: as §1, §2, §3
Each inflammation rate is the average of 4 rats.

C[C@H]1C[C@H]2[C@@H]3CCC4=CC(=O)C=C[C@]4(C)[C@@]3(F)[C@@H](O)C[C@]2(C)[C@@]1(O)C(=O)COP(=O)(O)O [betamethasone phosphate]
Inflammation rate (adjuvant arthritis rats [1]; 1 day after single i.v. dose equivalent to 40 μg betamethasone): 81%
Inflammation rate (adjuvant arthritis rats [1]; 2 days after single i.v. dose equivalent to 40 μg betamethasone): 83%
Inflammation rate (adjuvant arthritis rats [1]; 3 days after single i.v. dose equivalent to 40 μg betamethasone): 83%
Inflammation rate (adjuvant arthritis rats [1]; 4 days after single i.v. dose equivalent to 40 μg betamethasone): 78%
Inflammation rate (adjuvant arthritis rats [1]; 5 days after single i.v. dose equivalent to 40 μg betamethasone): 78%
Inflammation rate (adjuvant arthritis rats [1]; 7 days after single i.v. dose equivalent to 40 μg betamethasone): 79%
Inflammation rate (adjuvant arthritis rats [1]; 9 days after single i.v. dose equivalent to 40 μg betamethasone): 79%
Inflammation rate (adjuvant arthritis rats [2]; 1 day after single i.v. dose equivalent to 50 μg betamethasone): 83%
Inflammation rate (adjuvant arthritis rats [2]; 2 days after single i.v. dose equivalent to 50 μg betamethasone): 80%
Inflammation rate (adjuvant arthritis rats [2]; 3 days after single i.v. dose equivalent to 50 μg betamethasone): 82%
Inflammation rate (adjuvant arthritis rats [2]; 4 days after single i.v. dose equivalent to 50 μg betamethasone): 83%
Inflammation rate (adjuvant arthritis rats [2]; 6 days after single i.v. dose equivalent to 50 μg betamethasone): 84%
Inflammation rate (adjuvant arthritis rats [2]; 8 days after single i.v. dose equivalent to 50 μg betamethasone): 81%
